{
  "source": "ChEMBL document CHEMBL3243932",
  "about": "“Potential antiinflammatory compounds. 3. Compounds derived from acenaphthene and indan” (J Med Chem, 1979)",
  "key": {"[1]": {"system": "Rattus norvegicus", "test": "Antiinflammatory activity in rat assessed as reduction of carrageenan-induced foot edema at 100 mg/kg, po administered as two doses", "format": "functional"}, "[2]": {"system": "Rattus norvegicus", "test": "Antiinflammatory activity against rat adjuvant arthritis model assessed as reduction of swelling in non-injected foot at 100 mg/kg, po administered for 16 days", "format": "functional", "settings": "384 h"}, "[3]": {"test": "Acute toxicity in po dosed mouse", "format": "organism-based", "settings": "in vivo"}, "[4]": {"system": "Rattus norvegicus", "test": "Antiinflammatory activity against rat adjuvant arthritis model assessed as reduction of swelling in non-injected foot at 1 mg/kg, po administered for 16 days", "format": "functional", "settings": "384 h"}, "[5]": {"system": "Rattus norvegicus", "test": "Antiinflammatory activity against rat adjuvant arthritis model assessed as reduction of swelling in non-injected foot at 50 mg/kg, po administered for 16 days", "format": "functional", "settings": "384 h"}, "[6]": {"system": "Rattus norvegicus", "test": "Antiinflammatory activity against rat adjuvant arthritis model assessed as reduction of swelling in non-injected foot at 33 mg/kg, po administered for 16 days", "format": "functional", "settings": "384 h"}, "[7]": {"system": "Rattus norvegicus", "test": "Antiinflammatory activity in rat assessed as reduction of carrageenan-induced foot edema at 50 mg/kg, po administered as two doses", "format": "functional"}, "[8]": {"system": "Rattus norvegicus", "test": "Antiinflammatory activity in po dosed rat assessed as reduction of carrageenan-induced foot edema administered as two doses", "format": "functional, organism-based"}, "[9]": {"system": "Rattus norvegicus", "test": "Antiinflammatory activity in rat assessed as reduction of carrageenan-induced foot edema at 25 mg/kg, po administered as two doses", "format": "functional"}},
  "note": "The source made the active and inactive calls. The rule behind the calls is not given here.",
  "data": [
    {"smiles": "O=C(O)Cc1ccc2c3c(cccc13)C(c1ccccc1)C2", "note": "(configuration not stated)", "values": [
      {"measurement": "inhibition in vivo at 100 mg/kg", "setting": "[1]", "value": 53, "unit": "%"},
      {"measurement": "inhibition in vivo at 100 mg/kg", "setting": "[2]", "value": 0, "unit": "%"},
      {"measurement": "LD50", "setting": "[3]", "value": 400, "unit": "mg/kg"}
    ]},
    {"smiles": "O=C([O-])Cc1ccc2c(c1)CCC2C1CCCCC1.[Na+]", "note": "(configuration not stated)", "values": [
      {"measurement": "inhibition in vivo at 100 mg/kg", "setting": "[1]", "value": 28, "unit": "%"},
      {"measurement": "LD50", "setting": "[3]", "value": 1200, "unit": "mg/kg"}
    ]},
    {"smiles": "O=C(O)Cc1ccc(C2CC(=O)c3ccccc32)cc1", "note": "(configuration not stated)", "values": [
      {"measurement": "inhibition in vivo at 100 mg/kg", "setting": "[1]", "value": 36, "unit": "%"},
      {"measurement": "inhibition in vivo at 100 mg/kg", "setting": "[2]", "value": 52, "unit": "%"},
      {"measurement": "LD50", "setting": "[3]", "value": 1600, "unit": "mg/kg"}
    ]},
    {"smiles": "O=C1CC(c2ccccc2)c2ccccc21", "note": "(configuration not stated)", "values": [
      {"measurement": "inhibition in vivo at 100 mg/kg", "setting": "[1]", "value": 48, "unit": "%"},
      {"measurement": "inhibition in vivo at 100 mg/kg", "setting": "[2]", "value": 36, "unit": "%"},
      {"measurement": "LD50", "setting": "[3]", "value": 1600, "unit": "mg/kg"}
    ]},
    {"smiles": "O=C(O)CC1CC(c2ccccc2)c2ccccc21", "note": "(configuration not stated)", "values": [
      {"measurement": "inhibition in vivo at 100 mg/kg", "setting": "[1]", "value": 0, "unit": "%"},
      {"measurement": "LD50", "setting": "[3]", "value": 1600, "unit": "mg/kg"}
    ]},
    {"smiles": "COc1ccc2c(c1)c(CC(=O)O)c(C)n2C(=O)c1ccc(Cl)cc1", "note": "[INDOMETHACIN]", "values": [
      {"measurement": "inhibition in vivo at 1 mg/kg", "setting": "[4]", "value": 57, "unit": "%"}
    ]},
    {"smiles": "CC(C(=O)O)c1ccc2c3c(cccc13)C(c1ccccc1)C2", "note": "(configuration not stated)", "values": [
      {"measurement": "inhibition in vivo at 100 mg/kg", "setting": "[1]", "value": 44, "unit": "%"},
      {"measurement": "inhibition in vivo at 50 mg/kg", "setting": "[5]", "value": 50, "unit": "%"},
      {"measurement": "LD50", "setting": "[3]", "value": 1600, "unit": "mg/kg"}
    ]},
    {"smiles": "CCCCC1C(=O)N(c2ccccc2)N(c2ccccc2)C1=O", "note": "[PHENYLBUTAZONE]", "values": [
      {"measurement": "inhibition in vivo at 33 mg/kg", "setting": "[6]", "value": 42, "unit": "%"},
      {"measurement": "inhibition in vivo at 50 mg/kg", "setting": "[5]", "value": 50, "unit": "%"},
      {"measurement": "inhibition in vivo at 50 mg/kg", "setting": "[7]", "value": 30, "unit": "%"}
    ]},
    {"smiles": "CC1CCc2cc(-c3ccccc3)ccc21", "note": "(configuration not stated)", "values": [
      {"measurement": "inhibition in vivo at 100 mg/kg", "setting": "[1]", "value": 35, "unit": "%"},
      {"measurement": "inhibition in vivo at 50 mg/kg", "setting": "[5]", "value": 32, "unit": "%"},
      {"measurement": "LD50", "setting": "[3]", "value": 1600, "unit": "mg/kg"}
    ]},
    {"smiles": "O=C(O)Cc1ccc2c(c1)C(=O)CC2", "values": [
      {"measurement": "inhibition in vivo at 100 mg/kg", "setting": "[1]", "value": 0, "unit": "%"},
      {"measurement": "LD50", "setting": "[3]", "value": 1600, "unit": "mg/kg"}
    ]},
    {"smiles": "O=C(O)Cc1ccc2c(c1)C(=O)/C(=C/c1ccc(Cl)cc1)C2", "values": [
      {"measurement": "inhibition in vivo at 100 mg/kg", "setting": "[1]", "value": 0, "unit": "%"},
      {"measurement": "inhibition in vivo at 100 mg/kg", "setting": "[2]", "value": 43, "unit": "%"},
      {"measurement": "LD50", "setting": "[3]", "value": 1600, "unit": "mg/kg"}
    ]},
    {"smiles": "CC1CC(=O)c2cc(-c3ccccc3)ccc21", "note": "(configuration not stated)", "values": [
      {"measurement": "inhibition in vivo at 100 mg/kg", "setting": "[1]", "value": 7, "unit": "%"},
      {"measurement": "LD50", "setting": "[3]", "value": 1600, "unit": "mg/kg"}
    ]},
    {"smiles": "O=C(O)Cc1ccc2c(c1)C(=O)/C(=C/c1ccccc1)C2", "values": [
      {"measurement": "inhibition in vivo at 100 mg/kg", "setting": "[1]", "value": 26, "unit": "%"},
      {"measurement": "inhibition in vivo at 100 mg/kg", "setting": "[2]", "value": 25, "unit": "%"},
      {"measurement": "LD50", "setting": "[3]", "value": 1600, "unit": "mg/kg"}
    ]},
    {"smiles": "O=C(O)Cc1ccc(C(CC(=O)O)c2ccccc2)cc1", "note": "(configuration not stated)", "values": [
      {"measurement": "inhibition", "setting": "[8]", "value": "inactive"}
    ]},
    {"smiles": "O=C(O)CCC1CC(c2ccccc2)c2ccccc21", "note": "(configuration not stated)", "values": [
      {"measurement": "inhibition in vivo at 25 mg/kg", "setting": "[9]", "value": 0, "unit": "%"},
      {"measurement": "LD50", "setting": "[3]", "value": 300, "unit": "mg/kg"}
    ]},
    {"smiles": "O=C(O)Cc1ccc2c(c1)C(=O)CC2C1CCCCC1", "note": "(configuration not stated)", "values": [
      {"measurement": "inhibition in vivo at 100 mg/kg", "setting": "[1]", "value": 8, "unit": "%"},
      {"measurement": "LD50", "setting": "[3]", "value": 1200, "unit": "mg/kg"}
    ]},
    {"smiles": "CC(C(=O)O)c1ccc2c(c1)C(=O)/C(=C/c1ccc(Cl)cc1)C2", "note": "(configuration not stated)", "values": [
      {"measurement": "inhibition in vivo at 100 mg/kg", "setting": "[2]", "value": 53, "unit": "%"}
    ]},
    {"smiles": "O=C(O)CCc1ccc(CC(=O)O)cc1", "values": [
      {"measurement": "inhibition", "setting": "[8]", "value": "inactive"}
    ]},
    {"smiles": "C[C@]12CCC(=O)C=C1CC[C@@H]1[C@@H]2[C@@H](O)C[C@@]2(C)[C@H]1CC[C@]2(O)C(=O)CO", "note": "[HYDROCORTISONE]", "values": [
      {"measurement": "inhibition in vivo at 50 mg/kg", "setting": "[7]", "value": 51, "unit": "%"}
    ]},
    {"smiles": "C/C=C/C(=O)c1ccc(-c2ccccc2)cc1", "values": [
      {"measurement": "inhibition", "setting": "[8]", "value": "inactive"}
    ]}
  ]
}
